Assay [1] deals with scn1Lab mutants. The class given is in vivo, zebrafish.
In assay [2] the test system is WT zebrafish exposed to 15 mM pentylenetetrazole. In words: PTZ-induced seizure behavior in wild-type larvae (locomotion). The following applies: 100 μM; 15 mM PTZ; n=10. The assay is classed as in vivo.
Another assay has as its target T1, 5-HT1A(h) (Homo sapiens, UniProt P08908).
T1 construct: CEREP (contract assay panel)
T1 sequence (P08908 1-422): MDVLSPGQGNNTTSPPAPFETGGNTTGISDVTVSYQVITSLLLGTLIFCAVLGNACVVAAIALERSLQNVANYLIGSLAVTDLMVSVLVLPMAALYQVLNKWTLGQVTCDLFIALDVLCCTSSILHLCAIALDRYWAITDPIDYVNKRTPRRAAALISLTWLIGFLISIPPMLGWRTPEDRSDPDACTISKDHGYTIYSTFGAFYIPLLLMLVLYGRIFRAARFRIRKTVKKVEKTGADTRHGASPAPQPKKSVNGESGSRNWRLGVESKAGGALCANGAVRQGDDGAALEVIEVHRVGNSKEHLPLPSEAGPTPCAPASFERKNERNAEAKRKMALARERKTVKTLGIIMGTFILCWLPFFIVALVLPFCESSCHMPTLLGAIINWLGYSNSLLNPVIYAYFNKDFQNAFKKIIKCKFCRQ
In words: CEREP BioPrint binding. To be noted: 1.0E-05M; agonist radioligand. As to the method: (§1) Clemizole (149934-L6) was tested in the CEREP BioPrint Profile, which is apanel of 139 different in vitro receptor binding and enzyme assays. For the initial BioPrint screen, afree compound concentration of 10 μM (LOE-5 M) was used. Compound binding was calculated as a % inhibition of the binding of aradioactively labeled ligand specific for each target. Compound enzyme inhibition effect was calculated as a % inhibition of control enzyme activity. In each experiment, the respective reference compound was tested concurrently with Clemizole (149934-L6), and the data were compared with historical values determined at CEREP. The experiment was accepted in accordance with CEREP's validation Standard Operating Procedure. Results showing an inhibition (or stimulation for assays run in basal conditions) higher than 50% are considered to represent significant effects of the test compounds.

A further assay concerns the target T2, 5-HT1B(h) (Homo sapiens, UniProt P28222).
T2 construct: CEREP (contract assay panel)
In words: CEREP BioPrint binding. The following applies: 1.0E-05M; agonist radioligand. As to the method: as §1

For another assay, the target named is T3, 5-HT1D(h) (Homo sapiens, UniProt P28221).
T3 construct: CEREP (contract assay panel)
In words: CEREP BioPrint binding. To be noted: 1.0E-05M; agonist radioligand. Here is the method: as §1

The target in a further assay is T4, 5-HT2A(h) (Homo sapiens, UniProt P28223).
T4 construct: CEREP (contract assay panel)
In words: CEREP BioPrint binding. To be noted: 1.0E-05M; agonist radioligand. As to the method:
as §1

The target in another assay is T5, 5-HT2B(h) (Homo sapiens, UniProt P41595).
T5 construct: CEREP (contract assay panel)
In words: CEREP BioPrint binding. The following applies: 1.0E-05M; agonist radioligand. Here is the method:
as §1

The next assay has as its target T6, 5-HT3(h) (Homo sapiens, UniProt P46098).
T6 construct: CEREP (contract assay panel)
T6 sequence (P46098 24-478): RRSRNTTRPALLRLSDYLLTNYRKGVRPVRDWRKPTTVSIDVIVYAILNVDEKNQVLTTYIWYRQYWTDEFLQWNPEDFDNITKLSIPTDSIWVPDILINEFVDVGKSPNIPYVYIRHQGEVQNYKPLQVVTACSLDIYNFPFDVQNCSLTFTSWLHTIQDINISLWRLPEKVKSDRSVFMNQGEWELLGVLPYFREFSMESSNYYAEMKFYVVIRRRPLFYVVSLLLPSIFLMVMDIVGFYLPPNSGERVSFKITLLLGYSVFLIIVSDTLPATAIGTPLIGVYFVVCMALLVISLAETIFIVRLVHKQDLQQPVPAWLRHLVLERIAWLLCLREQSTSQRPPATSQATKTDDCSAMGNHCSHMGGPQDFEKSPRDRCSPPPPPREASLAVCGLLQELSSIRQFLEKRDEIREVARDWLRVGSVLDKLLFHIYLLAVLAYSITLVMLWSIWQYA
In words: CEREP BioPrint binding. To be noted: 1.0E-05M; agonist radioligand. As to the method: as §1

Another assay concerns the target T7, 5-HT4e(h) (Homo sapiens, UniProt Q13639).
T7 construct: CEREP (contract assay panel)
In words: CEREP BioPrint binding. To be noted: 1.0E-05M; agonist radioligand. Here is the method: as §1

The subject of a further assay is BZD (central). In words: CEREP BioPrint binding. To be noted: 1.0E-05M; agonist radioligand. As to the method:
as §1

Another assay deals with T8, CB1(h) (Homo sapiens, UniProt P21554).
T8 construct: CEREP (contract assay panel)
In words: CEREP BioPrint binding. To be noted: 1.0E-05M; agonist radioligand. As to the method:
as §1

Another assay concerns the target T9, CB2(h) (Homo sapiens, UniProt P34972).
T9 construct: CEREP (contract assay panel)
In words: CEREP BioPrint binding. The following applies: 1.0E-05M; agonist radioligand. As to the method:
as §1

Another assay concerns GABA transporter. In words: CEREP BioPrint binding. To be noted: 1.0E-05M. As to the method:
as §1

The subject of another assay is GABA-gated Cl channel. In words: CEREP BioPrint binding. To be noted: 1.0E-05M. As to the method:
as §1

In the next assay the target is T10, GABAA1(h) (Homo sapiens, UniProt P14867+P47870).
T10 construct: CEREP (contract assay panel)
T10 sequence (P14867 28-456): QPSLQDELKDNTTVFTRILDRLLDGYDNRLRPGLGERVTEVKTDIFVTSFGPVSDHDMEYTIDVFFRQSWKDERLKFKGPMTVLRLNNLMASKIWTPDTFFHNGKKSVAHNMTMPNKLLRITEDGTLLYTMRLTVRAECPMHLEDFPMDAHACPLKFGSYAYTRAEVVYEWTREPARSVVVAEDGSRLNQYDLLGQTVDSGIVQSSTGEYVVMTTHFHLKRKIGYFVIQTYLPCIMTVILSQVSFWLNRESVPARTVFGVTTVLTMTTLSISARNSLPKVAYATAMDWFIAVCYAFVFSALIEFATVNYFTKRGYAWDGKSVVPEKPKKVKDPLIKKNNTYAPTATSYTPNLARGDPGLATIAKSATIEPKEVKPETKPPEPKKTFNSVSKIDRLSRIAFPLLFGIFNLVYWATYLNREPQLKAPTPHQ
T10 sequence (P47870 25-512 limits assumed): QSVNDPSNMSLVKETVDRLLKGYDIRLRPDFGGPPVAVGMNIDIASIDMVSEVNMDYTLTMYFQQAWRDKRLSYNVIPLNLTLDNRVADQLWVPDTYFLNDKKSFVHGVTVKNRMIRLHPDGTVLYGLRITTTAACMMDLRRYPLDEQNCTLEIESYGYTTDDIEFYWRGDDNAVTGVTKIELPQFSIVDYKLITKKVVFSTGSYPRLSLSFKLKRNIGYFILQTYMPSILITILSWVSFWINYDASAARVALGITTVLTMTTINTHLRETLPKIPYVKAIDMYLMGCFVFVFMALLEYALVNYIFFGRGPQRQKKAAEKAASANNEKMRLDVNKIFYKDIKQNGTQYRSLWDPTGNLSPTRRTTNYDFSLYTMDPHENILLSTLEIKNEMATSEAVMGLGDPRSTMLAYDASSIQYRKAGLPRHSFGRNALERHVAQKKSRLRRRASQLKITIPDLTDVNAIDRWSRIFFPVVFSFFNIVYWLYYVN
T10 sequence (P18507 40-467 partner limits assumed): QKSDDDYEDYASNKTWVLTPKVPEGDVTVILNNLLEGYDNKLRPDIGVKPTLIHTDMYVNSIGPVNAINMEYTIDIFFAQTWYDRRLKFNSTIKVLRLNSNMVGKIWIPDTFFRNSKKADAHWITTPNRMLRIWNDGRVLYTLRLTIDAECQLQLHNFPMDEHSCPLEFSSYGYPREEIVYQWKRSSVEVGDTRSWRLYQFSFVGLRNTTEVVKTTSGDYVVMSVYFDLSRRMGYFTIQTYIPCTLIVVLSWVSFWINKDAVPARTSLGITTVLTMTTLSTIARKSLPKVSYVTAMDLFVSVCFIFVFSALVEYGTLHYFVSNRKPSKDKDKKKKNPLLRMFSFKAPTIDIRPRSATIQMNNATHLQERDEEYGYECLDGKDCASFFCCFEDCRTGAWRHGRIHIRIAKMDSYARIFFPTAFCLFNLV
In words: CEREP BioPrint binding. To be noted: 1.0E-05M; agonist radioligand. Here is the method:
as §1

In a further assay the target is T11, GABAB(1b)(h) (Homo sapiens, UniProt Q9UBS5).
T11 construct: CEREP (contract assay panel)
In words: CEREP BioPrint binding. To be noted: 1.0E-05M; agonist radioligand. Here is the method: as §1

The next assay relates to SK-Ca channel. In words: CEREP BioPrint binding. To be noted: 1.0E-05M. As to the method: as §1
In assay [3] the test system is scn1Lab mutants. In words: Locomotion tracking assay of seizure behavior (96-well format).

Molecules are shown by their SMILES.

Experimental findings from US10874643B2 (priority 2015, dated 2020) are described below.

T9 sequence (P34972 whole entry): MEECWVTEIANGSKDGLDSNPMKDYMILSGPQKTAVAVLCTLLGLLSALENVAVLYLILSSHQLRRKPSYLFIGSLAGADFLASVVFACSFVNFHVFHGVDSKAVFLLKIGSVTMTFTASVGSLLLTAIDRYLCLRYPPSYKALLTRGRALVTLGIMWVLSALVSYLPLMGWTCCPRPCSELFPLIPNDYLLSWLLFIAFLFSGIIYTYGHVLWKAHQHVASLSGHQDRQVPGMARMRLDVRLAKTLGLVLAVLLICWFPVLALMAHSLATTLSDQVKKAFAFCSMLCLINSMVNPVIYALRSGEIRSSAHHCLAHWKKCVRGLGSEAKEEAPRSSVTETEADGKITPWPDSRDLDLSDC
T8 sequence (P21554 whole entry): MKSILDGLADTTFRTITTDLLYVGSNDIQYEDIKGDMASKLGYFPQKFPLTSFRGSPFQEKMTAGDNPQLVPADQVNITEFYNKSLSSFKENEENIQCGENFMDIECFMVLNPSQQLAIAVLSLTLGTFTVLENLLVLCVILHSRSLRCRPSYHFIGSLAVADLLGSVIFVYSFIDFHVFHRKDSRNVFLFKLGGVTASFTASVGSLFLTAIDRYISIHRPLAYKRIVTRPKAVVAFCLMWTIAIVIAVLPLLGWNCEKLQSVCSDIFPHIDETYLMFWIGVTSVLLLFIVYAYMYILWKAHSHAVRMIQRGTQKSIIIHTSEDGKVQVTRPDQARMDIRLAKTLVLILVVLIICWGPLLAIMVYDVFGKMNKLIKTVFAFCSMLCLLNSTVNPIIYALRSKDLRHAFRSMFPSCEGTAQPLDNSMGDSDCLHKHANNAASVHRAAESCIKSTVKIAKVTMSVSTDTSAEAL
T5 sequence (P41595 whole entry): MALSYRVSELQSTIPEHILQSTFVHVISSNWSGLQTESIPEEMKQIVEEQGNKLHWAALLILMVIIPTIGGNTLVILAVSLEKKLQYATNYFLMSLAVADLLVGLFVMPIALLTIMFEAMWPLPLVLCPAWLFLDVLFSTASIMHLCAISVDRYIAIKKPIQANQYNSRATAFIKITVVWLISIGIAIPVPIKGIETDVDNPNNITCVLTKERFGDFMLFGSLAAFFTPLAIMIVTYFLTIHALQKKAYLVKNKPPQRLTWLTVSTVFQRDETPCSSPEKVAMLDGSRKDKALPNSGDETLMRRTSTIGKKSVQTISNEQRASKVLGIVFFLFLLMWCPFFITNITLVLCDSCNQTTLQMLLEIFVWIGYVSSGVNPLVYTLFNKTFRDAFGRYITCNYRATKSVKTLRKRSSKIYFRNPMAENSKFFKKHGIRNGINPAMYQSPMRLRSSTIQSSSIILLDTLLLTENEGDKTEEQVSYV
T3 sequence (P28221 whole entry): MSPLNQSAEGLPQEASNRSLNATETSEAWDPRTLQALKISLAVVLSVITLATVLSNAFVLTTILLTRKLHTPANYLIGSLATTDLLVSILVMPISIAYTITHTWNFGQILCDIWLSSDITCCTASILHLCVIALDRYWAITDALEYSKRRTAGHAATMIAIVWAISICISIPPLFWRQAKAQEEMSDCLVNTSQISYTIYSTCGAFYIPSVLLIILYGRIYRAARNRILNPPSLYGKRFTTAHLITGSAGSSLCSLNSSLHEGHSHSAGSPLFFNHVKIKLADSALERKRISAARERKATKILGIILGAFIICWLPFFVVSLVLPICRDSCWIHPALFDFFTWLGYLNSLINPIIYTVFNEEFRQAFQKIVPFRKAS
T11 sequence (Q9UBS5 1-844 isoform Q9UBS5-2): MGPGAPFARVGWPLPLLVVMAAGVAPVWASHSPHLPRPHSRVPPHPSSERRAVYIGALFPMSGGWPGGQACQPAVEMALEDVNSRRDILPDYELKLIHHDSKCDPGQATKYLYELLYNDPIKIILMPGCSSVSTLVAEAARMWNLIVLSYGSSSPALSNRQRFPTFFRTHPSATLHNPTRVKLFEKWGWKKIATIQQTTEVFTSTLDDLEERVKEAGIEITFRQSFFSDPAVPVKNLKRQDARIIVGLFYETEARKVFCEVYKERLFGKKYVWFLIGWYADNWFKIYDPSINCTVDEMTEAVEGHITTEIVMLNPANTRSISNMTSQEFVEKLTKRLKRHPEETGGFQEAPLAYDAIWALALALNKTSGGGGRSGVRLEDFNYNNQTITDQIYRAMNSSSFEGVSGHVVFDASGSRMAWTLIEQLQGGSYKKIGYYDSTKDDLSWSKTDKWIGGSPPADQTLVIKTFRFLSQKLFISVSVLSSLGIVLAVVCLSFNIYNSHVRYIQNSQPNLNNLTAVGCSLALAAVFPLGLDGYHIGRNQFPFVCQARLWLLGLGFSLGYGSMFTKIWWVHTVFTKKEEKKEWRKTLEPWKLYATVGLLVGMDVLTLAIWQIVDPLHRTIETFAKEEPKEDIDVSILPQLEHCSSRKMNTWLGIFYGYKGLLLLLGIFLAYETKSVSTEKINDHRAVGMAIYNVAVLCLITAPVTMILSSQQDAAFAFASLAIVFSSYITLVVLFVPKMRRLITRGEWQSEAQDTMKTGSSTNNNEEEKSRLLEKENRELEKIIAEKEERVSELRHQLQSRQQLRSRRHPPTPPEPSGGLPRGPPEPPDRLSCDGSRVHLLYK
T7 sequence (Q13639 1-378 isoform Q13639-5): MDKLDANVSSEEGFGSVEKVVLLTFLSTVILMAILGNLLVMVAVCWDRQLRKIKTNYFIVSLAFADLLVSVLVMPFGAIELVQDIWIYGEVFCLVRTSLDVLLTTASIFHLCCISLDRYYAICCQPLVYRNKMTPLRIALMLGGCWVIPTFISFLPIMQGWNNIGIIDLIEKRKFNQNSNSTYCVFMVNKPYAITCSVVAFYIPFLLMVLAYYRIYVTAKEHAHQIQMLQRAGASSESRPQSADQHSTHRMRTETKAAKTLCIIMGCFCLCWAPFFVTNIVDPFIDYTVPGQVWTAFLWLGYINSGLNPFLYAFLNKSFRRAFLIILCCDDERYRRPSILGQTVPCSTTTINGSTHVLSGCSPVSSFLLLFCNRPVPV
T4 sequence (P28223 whole entry): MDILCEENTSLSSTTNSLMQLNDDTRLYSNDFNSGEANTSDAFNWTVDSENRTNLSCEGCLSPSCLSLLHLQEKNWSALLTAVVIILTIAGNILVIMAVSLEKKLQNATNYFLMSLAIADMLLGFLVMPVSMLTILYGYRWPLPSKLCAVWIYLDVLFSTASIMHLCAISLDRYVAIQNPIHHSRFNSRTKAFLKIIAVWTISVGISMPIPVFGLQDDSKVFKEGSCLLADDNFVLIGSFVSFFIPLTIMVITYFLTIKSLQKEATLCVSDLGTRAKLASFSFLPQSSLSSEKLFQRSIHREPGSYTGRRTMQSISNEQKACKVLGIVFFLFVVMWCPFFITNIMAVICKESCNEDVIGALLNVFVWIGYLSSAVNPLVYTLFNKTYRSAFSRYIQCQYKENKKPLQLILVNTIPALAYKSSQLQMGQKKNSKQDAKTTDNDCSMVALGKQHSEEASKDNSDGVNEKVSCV
T2 sequence (P28222 whole entry): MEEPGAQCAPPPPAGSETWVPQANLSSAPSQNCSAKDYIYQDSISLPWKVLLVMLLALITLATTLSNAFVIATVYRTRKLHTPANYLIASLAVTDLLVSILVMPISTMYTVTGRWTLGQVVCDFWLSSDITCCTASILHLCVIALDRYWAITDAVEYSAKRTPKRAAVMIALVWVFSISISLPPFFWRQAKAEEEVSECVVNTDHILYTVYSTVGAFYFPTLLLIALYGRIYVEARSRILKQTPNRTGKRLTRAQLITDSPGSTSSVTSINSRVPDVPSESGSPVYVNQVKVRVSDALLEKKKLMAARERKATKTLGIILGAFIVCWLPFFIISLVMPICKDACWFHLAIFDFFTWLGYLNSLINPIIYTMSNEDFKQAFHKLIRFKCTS

In the case of `Clc1ccc(Cn2c(CN3CCCC3)nc3ccccc32)cc1` [Clemizole], the “forebrain electrographic seizure activity in the same mutants after the locomotion assay” value with scn1Lab mutants [1] (100 μM, mutant embedded in agar) was “effective in suppressing spontaneous seizure activity”. In the assay on scn1Lab mutants [1] (clemizole-treated mutants (100 μM), n=7, un-treated mutants 926±414), this molecule yielded a burst duration of 154 ± 127 ms. The same molecule showed a burst frequency in the assay with scn1Lab mutants [1] (mutants exposed to clemizole first in locomotion assay (100 μM), n=7, un-treated mutants 1.5±0.3) of 0.2±0.01 bursts/min. For the same molecule, the seizure behavior result in [2] is listed as “effective in reducing seizure behavior”. The “% inhibition of the binding of a radioactively labeled ligand, 5-HT1A(h)” value at 5-HT1A(h) came to 19.5%. The “% inhibition of the binding of a radioactively labeled ligand, 5-HT1B(h)” value at 5-HT1B(h) was 4.4%. In addition, at 5-HT1D(h), the “% inhibition of the binding of a radioactively labeled ligand, 5-HT1D(h)” value was found to be 22.7%. Further, on 5-HT2A(h), the “% inhibition of the binding of a radioactively labeled ligand, 5-HT2A(h)” value is given as 86%. Moreover, the “% inhibition of the binding of a radioactively labeled ligand, 5-HT2B(h)” value at 5-HT2B(h) stood at 82.5%. The “% inhibition of the binding of a radioactively labeled ligand, 5-HT3(h)” value on 5-HT3(h) turned out to be 9.8%. In addition, the “% inhibition of the binding of a radioactively labeled ligand, 5-HT4e(h)” value at 5-HT4e(h) is listed as −1.0%. The “% inhibition of the binding of a radioactively labeled ligand, BZD (central)” value with BZD (central) was −19.6%. The “% inhibition of the binding of a radioactively labeled ligand, CB1(h)” value at CB1(h) turned out to be 17.9%. In addition, the “% inhibition of the binding of a radioactively labeled ligand, CB2(h)” value on CB2(h) was found to be 28.4%. Besides, the “% inhibition of the binding of a radioactively labeled ligand, GABA transporter” value in the assay on GABA transporter is −5.9%. Also, the “% inhibition of the binding of a radioactively labeled ligand, GABA-gated Cl channel” value in the assay with GABA-gated Cl channel was determined as 24.9%. Also, the “% inhibition of the binding of a radioactively labeled ligand, GABAA1(h)” value on GABAA1(h) is reported as −9.6%. Further, the “% inhibition of the binding of a radioactively labeled ligand, GABAB(1b)(h)” value at GABAB(1b)(h) is recorded as −5.9%. Also, in the assay on SK-Ca channel, the “% inhibition of the binding of a radioactively labeled ligand, SK-Ca channel” value is −0.2%. Also, the “swim activity / seizure behavior, third evaluation” value in the assay with scn1Lab mutants [3] (100 μM, 10 fish per trial) is given as “effective in suppressing spontaneous seizure activity”. Further, the “seizure-induced swim activity and mean velocity, re-test on separate clutch” value in the assay with scn1Lab mutants [3] (667, 67 and 6.7 μM) was “effective in reducing seizure-induced swim activity and mean velocity”. The “effect on seizure behavior” value with scn1Lab mutants [3] (concentrations between 6.25 and 50 μM, n=33) is on record as “no significant effect”.
